According to patent US9957271B2, “Substituted bicyclic aza-heterocycles and analogues as sirtuin modulators” (GlaxoSmithKline, LLC, priority 2012, dated 2018):
Read-outs that look alike come from different tables or passages of the source.

Target: T1, SIRT1 (Homo sapiens, UniProt Q96EB6)
T1 sequence (Q96EB6 1-747): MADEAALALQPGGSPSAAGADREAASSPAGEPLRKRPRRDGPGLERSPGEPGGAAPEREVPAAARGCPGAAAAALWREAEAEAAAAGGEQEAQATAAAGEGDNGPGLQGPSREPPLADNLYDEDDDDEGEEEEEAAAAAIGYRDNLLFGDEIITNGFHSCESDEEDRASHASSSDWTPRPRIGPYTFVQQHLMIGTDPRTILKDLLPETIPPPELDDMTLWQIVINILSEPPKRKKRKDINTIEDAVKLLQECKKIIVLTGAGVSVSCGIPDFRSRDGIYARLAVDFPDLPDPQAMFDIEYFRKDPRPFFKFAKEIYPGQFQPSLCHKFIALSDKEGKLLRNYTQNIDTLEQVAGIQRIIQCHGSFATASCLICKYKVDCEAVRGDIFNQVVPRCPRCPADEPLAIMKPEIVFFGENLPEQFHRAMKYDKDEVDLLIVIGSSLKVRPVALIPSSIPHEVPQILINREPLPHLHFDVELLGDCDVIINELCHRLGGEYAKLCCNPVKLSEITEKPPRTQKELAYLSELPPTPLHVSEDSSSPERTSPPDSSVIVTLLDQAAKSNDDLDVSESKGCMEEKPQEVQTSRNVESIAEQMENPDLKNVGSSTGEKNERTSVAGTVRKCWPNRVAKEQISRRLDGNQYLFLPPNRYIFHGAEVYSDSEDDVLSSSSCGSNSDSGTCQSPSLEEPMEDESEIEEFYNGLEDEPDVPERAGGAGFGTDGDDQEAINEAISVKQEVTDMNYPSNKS
Experiment: TAMRA based mass spectrometry assay of SIRT1 activity
Type: biochemical
Conditions: for TAMRA EC1.5 / TAMRA EC1.5 (μM): concentration giving 150% activation of SIRT1; for Emax: percent maximum fold activation, read-out: TAMRA % Fold Act
How it was run: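 Recombinant N-terminal His-tagged human SIRT1 (10 nM, E. coli) incubated 25 min at 25 °C with 0.5 μM 5TMR-labelled p53-derived acetyl-peptide and 120 μM βNAD+ in Tris-acetate pH 8 buffer with DTT and 0.05% BSA, compound at varying concentrations. Stopped with formic acid; deacetylated peptide or OAADPR measured by mass spectrometry relative to DMSO controls.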

| TAMRA EC1.5 (TAMRA peptide substrate) | Emax (TAMRA peptide substrate) [%] | TAMRA EC1.5 (μM) (TAMRA assay) | Emax (TAMRA assay) [%] | SMILES |
| --- | --- | --- | --- | --- |
| A (EC1.5<1 μM) | ≥ 350 |  |  | Cc1cc(NC(=O)c2cnc3ccc(-c4ccccc4C(F)(F)F)nn23)cc(OC[C@H](O)CO)n1 [Compound 557] |
| A (EC1.5<1 μM) | ≥ 350 |  |  | Cc1nn2ccc(-c3ccccc3C(F)(F)F)nc2c1C(=O)Nc1ccncc1 [Compound 560] |
| A (EC1.5<1 μM) | ≥ 350 |  |  | Cc1nc2c(C)cc(-c3ccccc3C(F)(F)F)nn2c1C(=O)Nc1cccc(N2CC3(COC3)C2)n1 [Compound 562] |
| A (EC1.5<1 μM) | ≥ 350 |  |  | O=C(Nc1cnn2ccc(-c3ccccc3C(F)(F)F)nc12)c1nccs1 [Compound 563] |
| B (EC1.5 1-25 μM) | < 350 |  |  | O=C(Nc1cnc2ccc(N3CC[C@H](F)C3)nn12)c1ccccn1 [Compound 564] |
| B (EC1.5 1-25 μM) | < 350 |  |  | Cc1nn2ccc(-c3ccccc3C(F)(F)F)nc2c1NC(=O)c1ccccn1 [Compound 567, N-(2-methyl-5-(2-(trifluoromethyl)phenyl)pyrazolo[1,5-a]pyrimidin-3-yl)picolinamide] |
| C (EC1.5>25 μM) | < 350 |  |  | Cc1nn2ccc(-c3ccccc3C(F)(F)F)nc2c1NC(=O)c1ccncc1 [Compound 569] |
| B (EC1.5 1-25 μM) | < 350 |  |  | Cc1nn2ccc(-c3ccccc3C(F)(F)F)nc2c1NC(=O)c1ncccn1 [Compound 570] |
| B (EC1.5 1-25 μM) | < 350 |  |  | Cc1nn2ccc(-c3ccccc3C(F)(F)F)nc2c1NC(=O)c1cccc(CN2CCOCC2)n1 [Compound 573] |
| C (EC1.5>25 μM) | < 350 |  |  | Cc1nn2ccc(-c3ccccc3C(F)(F)F)nc2c1NC(=O)c1cccc(O)n1 [Compound 575] |
| C (EC1.5>25 μM) | < 350 |  |  | COc1cccc(C(=O)Nc2c(C)nn3ccc(-c4ccccc4C(F)(F)F)nc23)n1 [Compound 576] |
| B (EC1.5 1-25 μM) | < 350 |  |  | Cc1cc(C)nc(NC(=O)c2cnc3ccc(N4CCCC(C(F)(F)F)C4)nn23)c1 (stereo not drawn) [Compound 579] |
| A (EC1.5<1 μM) | ≥ 350 |  |  | O=C(Nc1cnn2ccc(-c3ccccc3OC(F)(F)F)nc12)c1ccccn1 [Compound 581] |
| B (EC1.5 1-25 μM) | < 350 |  |  | O=C(Nc1cnn2ccc(-c3ccccc3OC(F)(F)F)nc12)c1cccnc1 [Compound 582] |
| B (EC1.5 1-25 μM) | ≥ 350 |  |  | O=C(Nc1cnn2ccc(-c3ccccc3OC(F)(F)F)nc12)c1ccncn1 [Compound 585] |
| A (EC1.5<1 μM) | ≥ 350 |  |  | Cc1cc(-c2ccccc2C(F)(F)F)nn2c(C(=O)Nc3ccnc(OC4CCOCC4)n3)cnc12 [Compound 587] |
| B (EC1.5 1-25 μM) | < 350 |  |  | Cc1nc(NC(=O)c2cnc3c(C)cc(-c4ccccc4C(F)(F)F)nn23)sc1C [Compound 588] |
| A (EC1.5<1 μM) | ≥ 350 |  |  | O=C(Nc1ccnc(N2CC3(CCO3)C2)n1)c1cnc2ccc(-c3ccccc3C(F)(F)F)nn12 [Compound 592] |
| A (EC1.5<1 μM) | ≥ 350 |  |  | Cc1nc2c(C)cc(-c3ccccc3C(F)(F)F)nn2c1C(=O)Nc1ccnc(OC2CCOCC2)n1 [Compound 593] |
| A (EC1.5<1 μM) | < 350 |  |  | COc1nccnc1NC(=O)c1cnc2c(C)cc(-c3ccccc3C(F)(F)F)nn12 [Compound 595] |
| A (EC1.5<1 μM) | ≥ 350 |  |  | CCOc1nccc(NC(=O)c2cnc3c(C)cc(-c4ccccc4C(F)(F)F)nn23)n1 [Compound 596] |
|  |  | A (EC1.5<1 μM) | ≥ 350 | Cc1cc(-c2ccccc2C(F)(F)F)nn2c(C(=O)Nc3ccnc(O[C@H]4CCOC4)n3)cnc12 [Compound 601] |
|  |  | A (EC1.5<1 μM) | ≥ 350 | COc1cc(NC(=O)c2c(C)nc3ccc(-c4ccccc4C(F)(F)F)nn23)ncn1 [Compound 602] |
|  |  | A (EC1.5<1 μM) | ≥ 350 | Cc1cc(C)nc(NC(=O)c2cnn3ccc(-c4ccccc4OC(F)(F)F)nc23)c1 [Compound 605] |
|  |  | B (EC1.5 1-25 μM) | < 350 | O=C(Nc1nccs1)c1cnn2ccc(-c3ccccc3OC(F)(F)F)nc12 [Compound 607] |
|  |  | C (EC1.5>25 μM) | < 350 | Cc1ccc(NC(=O)c2cnn3ccc(-c4ccccc4OC(F)(F)F)nc23)nc1 [Compound 608] |

| TAMRA EC1.5 (TAMRA peptide substrate) | Emax (TAMRA peptide substrate) [%] | TAMRA EC1.5 (μM) (TAMRA assay) | Emax (TAMRA assay) [%] | SMILES |
| --- | --- | --- | --- | --- |
|  |  | A (EC1.5<1 μM) | ≥ 350 | Cc1cc(NC(=O)c2cnn3ccc(-c4ccccc4OC(F)(F)F)nc23)cc(C)n1 [Compound 611] |
|  |  | A (EC1.5<1 μM) | < 350 | Cc1nccc(NC(=O)c2cnn3ccc(-c4ccccc4OC(F)(F)F)nc23)c1C [Compound 613] |
|  |  | A (EC1.5<1 μM) | ≥ 350 | Cc1nc(NC(=O)c2cnn3ccc(-c4ccccc4OC(F)(F)F)nc23)sc1C [Compound 614] |
|  |  | A (EC1.5<1 μM) | ≥ 350 | Cc1cccc(NC(=O)c2cnn3ccc(-c4ccccc4OC(F)(F)F)nc23)n1 [Compound 617] |
|  |  | A (EC1.5<1 μM) | ≥ 350 | Cc1cc(NC(=O)c2cnn3ccc(-c4ccccc4C(F)(F)F)nc23)ccn1 [Compound 619] |
|  |  | B (EC1.5 1-25 μM) | < 350 | Cc1nccc(NC(=O)c2cnn3ccc(-c4ccccc4C(F)(F)F)nc23)c1C [Compound 620] |
|  |  | A (EC1.5<1 μM) | ≥ 350 | Cc1cnc(NC(=O)c2cnn3ccc(-c4ccccc4OC(F)(F)F)nc23)cn1 [Compound 623] |
|  |  | B (EC1.5 1-25 μM) | < 350 | Cc1ccc(NC(=O)c2cnn3ccc(-c4ccccc4OC(F)(F)F)nc23)c(C)n1 [Compound 625] |
|  |  | A (EC1.5<1 μM) | ≥ 350 | CCOc1cc(NC(=O)c2cnn3ccc(-c4ccccc4OC(F)(F)F)nc23)ccn1 [Compound 626] |
|  |  | A (EC1.5<1 μM) | ≥ 350 | Cc1cc(NC(=O)c2c(C)nn3ccc(-c4ccccc4C(F)(F)F)nc23)ccn1 [Compound 629] |
|  |  | A (EC1.5<1 μM) | ≥ 350 | Cc1ccc(NC(=O)c2cnn3ccc(-c4ccccc4C(F)(F)F)nc23)cn1 [Compound 631] |
|  |  | A (EC1.5<1 μM) | ≥ 350 | Cc1cncc(NC(=O)c2cnn3ccc(-c4ccccc4C(F)(F)F)nc23)c1 [Compound 632] |
|  |  | A (EC1.5<1 μM) | ≥ 350 | COc1ccc(NC(=O)c2cnn3ccc(-c4ccccc4OC(F)(F)F)nc23)nn1 [Compound 635] |
|  |  | A (EC1.5<1 μM) | ≥ 350 | Cc1ccc(NC(=O)c2c(C)nn3ccc(-c4ccccc4C(F)(F)F)nc23)cn1 [Compound 637] |
|  |  | A (EC1.5<1 μM) | ≥ 350 | Cc1cncc(NC(=O)c2c(C)nn3ccc(-c4ccccc4C(F)(F)F)nc23)c1 [Compound 638] |
|  |  | B (EC1.5 1-25 μM) | ≥ 350 | Cc1ccc(NC(=O)c2cnn3ccc(-c4ccccc4C(F)(F)F)nc23)c(C)n1 [Compound 641] |
|  |  | A (EC1.5<1 μM) | ≥ 350 | CCOc1cc(NC(=O)c2cnn3ccc(-c4ccccc4C(F)(F)F)nc23)ccn1 [Compound 643] |
|  |  | A (EC1.5<1 μM) | ≥ 350 | Cc1cc(-c2ccccc2C(F)(F)F)nn2c(C(=O)Nc3cc(N4CCCC4)ncn3)cnc12 [Compound 646] |
|  |  | A (EC1.5<1 μM) | ≥ 350 | Cc1cc(NC(=O)c2c(C)nn3ccc(-c4ccccc4C(F)(F)F)nc23)cc(C)n1 [Compound 648] |
|  |  | A (EC1.5<1 μM) | < 350 | Cc1ccncc1NC(=O)c1c(C)nn2ccc(-c3ccccc3C(F)(F)F)nc12 [Compound 649] |
|  |  | A (EC1.5<1 μM) | ≥ 350 | Cc1nc(NC(=O)c2c(C)nn3ccc(-c4ccccc4C(F)(F)F)nc23)sc1C [Compound 651] |
|  |  | A (EC1.5<1 μM) | ≥ 350 | Cc1cnc(NC(=O)c2c(C)nn3ccc(-c4ccccc4C(F)(F)F)nc23)s1 [Compound 652] |
|  |  | A (EC1.5<1 μM) | ≥ 350 | Cc1ccc(NC(=O)c2cnn3ccc(-c4ccccc4C(F)(F)F)nc23)nn1 [Compound 655] |
|  |  | A (EC1.5<1 μM) | ≥ 350 | CCOc1ccc(NC(=O)c2cnn3ccc(-c4ccccc4C(F)(F)F)nc23)nn1 [Compound 658] |
|  |  | A (EC1.5<1 μM) | ≥ 350 | O=C(Nc1cncc(F)c1)c1cnn2ccc(-c3ccccc3OC(F)(F)F)nc12 [Compound 660] |
